Assay results taken from US11459318B2, “Pesticidally active pyrrole derivatives” (Syngenta Participations AG, priority 2017, dated 2022).

What was measured:
Type in all cases: in vivo
[1] = test system: Spodoptera littoralis (Egyptian cotton leaf worm); assay: Spodoptera littoralis (Egyptian cotton leaf worm): Feeding/contact activity; conditions: foliar, 72 h, application rate of 200 ppm, L1 larvae on cotton leaf discs, assessed 3 days after infestation, read-out: control (mortality)
Method: Spodoptera littoralis (Egyptian cotton leaf worm): Feeding/contact activity Cotton leaf discs were placed onto agar in 24-well microtiter plates and sprayed with aqueous test solutions prepared from 10,000 ppm DMSO stock solutions. After drying the leaf discs were infested with five L1 larvae. The samples were assessed for mortality 3 days after infestation.

[2] = test system: Myzus persicae (Green peach aphid); assay: Myzus persicae (Green peach aphid): Feeding/Contact activity; conditions: foliar, 144 h, application rate of 200 ppm, aphid population of mixed ages on sunflower leaf discs, assessed 6 days after infestation, read-out: control (mortality)
Method: Myzus persicae (Green peach aphid): Feeding/Contact activity Sunflower leaf discs were placed onto agar in a 24-well microtiter plate and sprayed with aqueous test solutions prepared from 10,000 ppm DMSO stock solutions. After drying, the leaf discs were infested with an aphid population of mixed ages. The samples were assessed for mortality 6 days after infestation.

[3] = test system: Euschistus heros (Neotropical Brown Stink Bug); assay: Euschistus heros (Neotropical Brown Stink Bug): Feeding/contact activity; conditions: 120 h, application rate of 200 ppm, N2 nymphs on soybean leaves, assessed 5 days after infestation, read-out: control (mortality)
Method: Euschistus heros (Neotropical Brown Stink Bug): Feeding/contact activity Soybean leaves on agar in 24-well microtiter plates were sprayed with aqueous test solutions prepared from 10,000 ppm DMSO stock solutions. After drying the leaves were infested with N2 nymphs. The samples were assessed for mortality 5 days after infestation.

[4] = test system: Plutella xylostella (Diamond back moth); assay: Plutella xylostella (Diamond back moth): Feeding/contact activity; conditions: 120 h, application rate of 200 ppm, L2 larvae on artificial diet, assessed 5 days after infestation, read-out: control (mortality)
Method: Plutella xylostella (Diamond back moth): Feeding/contact activity
24-well microtiter plates with artificial diet were treated with aqueous test solutions prepared from 10,000 ppm DMSO stock solutions by pipetting. After drying, the plates were infested with L2 larvae (10 to 15 per well). The samples were assessed for mortality 5 days after infestation.

[5] = test system: Thrips tabaci (Onion Thrips); assay: Thrips tabaci (Onion Thrips): Feeding/Contact activity; conditions: foliar, 144 h, application rate of 200 ppm, thrips population of mixed ages on sunflower leaf discs, assessed 6 days after infestation, read-out: control (mortality)
Method: Thrips tabaci (Onion Thrips): Feeding/Contact activity
(§1) Sunflower leaf discs were placed on agar in 24-well microtiter plates and sprayed with aqueous test solutions prepared from 10,000 ppm DMSO stock solutions. After drying the leaf discs were infested with a thrips population of mixed ages. The samples were assessed for mortality 6 days after infestation.

[6] = test system: Diabrotica balteata (Corn root worm); assay: Diabrotica balteata (Corn root worm), maize sprouts sprayed, L2 larvae mortality; conditions: 96 h, application rate of 200 ppm, L2 larvae on maize sprouts, assessed 4 days after infestation, read-out: control (mortality)
Method: Diabrotica balteata (Corn root worm):
Maize sprouts placed onto an agar layer in 24-well microtiter plates were treated with aqueous test solutions prepared from 10,000 ppm DMSO stock solutions by spraying. After drying, the plates were infested with L2 larvae (6 to 10 per well). The samples were assessed for mortality 4 days after infestation.

[7] = test system: Tetranychus urticae (Two-spotted spider mite); assay: Tetranychus urticae (Two-spotted spider mite): Feeding/contact activity; conditions: foliar, 192 h, application rate of 200 ppm, mite population of mixed ages (mobile stages) on bean leaf discs, assessed 8 days after infestation, read-out: control (mortality)
Method: Tetranychus urticae (Two-spotted spider mite): Feeding/contact activity
as §1, with “Bean” for “Sunflower”, “discs” for “discs were placed”, “were” for “and”, “mite” for “thrips”, “on mixed population (mobile stages) 8” for “6”

Measured: mortality at 200 ppm

CC(C)(C)n1c(C(F)(C(F)(F)F)C(F)(F)F)cc(Br)c1-n1cc(-c2ccc(Cl)c(C(=O)NC3(C#N)CC3)c2)cn1 [Compound 25, 5-[1-[3-bromo-1-tert-butyl-5-[1,2,2,2-tetrafluoro-1-(trifluoromethyl)ethyl]pyrrol-2-yl]pyrazol-4-yl]-2-chloro-N-(1-cyanocyclopropyl)benzamide]
≥ 80%: all assays above

Cn1c(C(F)(C(F)(F)F)C(F)(F)F)cc(Br)c1-n1cc(-c2ccc(Cl)c(C(=O)NC3(C#N)CC3)c2)cn1 [Compound 2, 5-[1-[3-bromo-1-methyl-5-[1,2,2,2-tetrafluoro-1-(trifluoromethyl)ethyl]pyrrol-2-yl]pyrazol-4-yl]-2-chloro-N-(1-cyanocyclopropyl)benzamide]
≥ 80%: all assays above

N#CC1(NC(=O)c2cc(-c3cnn(-c4c(Br)cc(C(F)(C(F)(F)F)C(F)(F)F)n4CF)c3)ccc2Cl)CC1 [Compound 12, 5-[1-[3-bromo-1-(fluoromethyl)-5-[1,2,2,2-tetrafluoro-1-(trifluoromethyl)ethyl]pyrrol-2-yl]pyrazol-4-yl]-2-chloro-N-(1-cyanocyclopropyl)benzamide]
≥ 80%: all assays above

N#CC1(NC(=O)c2cc(-c3cnn(-c4c(Br)cc(C(F)(C(F)(F)F)C(F)(F)F)n4C4CC4)c3)ccc2Cl)CC1 [Compound 42, 5-[1-[3-bromo-1-cyclopropyl-5-[1,2,2,2-tetrafluoro-1-(trifluoromethyl)ethyl]pyrrol-2-yl]pyrazol-4-yl]-2-chloro-N-(1-cyanocyclopropyl)benzamide]
≥ 80%: all assays above

Cn1c(C(F)(C(F)(F)F)C(F)(F)F)cc(C#N)c1-n1cc(-c2ccc(Cl)c(C(=O)NC3(C#N)CC3)c2)cn1 [Compound 10, 2-chloro-N-(1-cyanocyclopropyl)-5-[1-[3-cyano-1-methyl-5-[1,2,2,2-tetrafluoro-1-(trifluoromethyl)ethyl]pyrrol-2-yl]pyrazol-4-yl]benzamide]
≥ 80%: all assays above

Cn1c(C(F)(C(F)(F)F)C(F)(F)C(F)(F)F)cc(Br)c1-n1cc(-c2ccc(Cl)c(C(=O)NC3(C#N)CC3)c2)cn1 (stereo not drawn) [Compound 27, 5-[1-[3-bromo-5-[1,2,2,3,3,3-hexafluoro-1-(trifluoromethyl)propyl]-1-methyl-pyrrol-2-yl]pyrazol-4-yl]-2-chloro-N-(1-cyanocyclopropyl)benzamide]
≥ 80%: all assays above

Cn1c(-n2cc(-c3ccc(Cl)c(C(=O)NC4(C#N)CC4)c3)cn2)ccc1C(F)(C(F)(F)F)C(F)(F)C(F)(F)F (stereo not drawn) [Compound 28, 2-chloro-N-(1-cyanocyclopropyl)-5-[1-[5-[1,2,2,3,3,3-hexafluoro-1-(trifluoromethyl)propyl]-1-methyl-pyrrol-2-yl]pyrazol-4-yl]benzamide]
≥ 80%: all assays above

CC(C)n1c(C(F)(C(F)(F)F)C(F)(F)F)cc(Br)c1-n1cc(-c2ccc(Cl)c(C(=O)NC3(C#N)CC3)c2)cn1 [Compound 24, 5-[1-[3-bromo-1-isopropyl-5-[1,2,2,2-tetrafluoro-1-(trifluoromethyl)ethyl]pyrrol-2-yl]pyrazol-4-yl]-2-chloro-N-(1-cyanocyclopropyl)benzamide]
≥ 80%: all assays above

N#CC1(NC(=O)c2cc(-c3cnn(-c4c(Cl)cc(C(F)(C(F)(F)F)C(F)(F)F)n4CF)c3)ccc2Cl)CC1 [Compound 29, 2-chloro-5-[1-[3-chloro-1-(fluoromethyl)-5-[1,2,2,2-tetrafluoro-1-(trifluoromethyl)ethyl]pyrrol-2-yl]pyrazol-4-yl]-N-(1-cyanocyclopropyl)benzamide]
≥ 80%: all assays above

N#CC1(NC(=O)c2cc(-c3cnn(-c4c(Br)cc(C(F)(C(F)(F)F)C(F)(F)F)n4CC(F)(F)F)c3)ccc2Cl)CC1 [Compound 26, 5-[1-[3-bromo-5-[1,2,2,2-tetrafluoro-1-(trifluoromethyl)ethyl]-1-(2,2,2-trifluoroethyl)pyrrol-2-yl]pyrazol-4-yl]-2-chloro-N-(1-cyanocyclopropyl)benzamide]
≥ 80%: all assays above

Cn1c(C(F)(C(F)(F)F)C(F)(F)F)cc(Cl)c1-n1cc(-c2ccc(Cl)c(C(=O)NC3(C#N)CC3)c2)cn1 [Compound 9, 2-chloro-5-[1-[3-chloro-1-methyl-5-[1,2,2,2-tetrafluoro-1-(trifluoromethyl)ethyl]pyrrol-2-yl]pyrazol-4-yl]-N-(1-cyanocyclopropyl)benzamide]
≥ 80%: all assays above

CN(C(=O)c1cc(-c2cnn(-c3c(Br)cc(C(F)(C(F)(F)F)C(F)(F)F)n3C)c2)ccc1Cl)C1(C#N)CC1 [Compound 21, 5-[1-[3-bromo-1-methyl-5-[1,2,2,2-tetrafluoro-1-(trifluoromethyl)ethyl]pyrrol-2-yl]pyrazol-4-yl]-2-chloro-N-(1-cyanocyclopropyl)-N-methyl-benzamide]
≥ 80%: all assays above
